Patent US20180263985A1, “MODULATORS OF TOLL-LIKE RECEPTORS FOR THE TREATMENT OF HIV” (Gilead Sciences, Inc., priority 2015, published 2018)
“And” between values parts separate entries of the source, which are not always exact repeats. Equal entries are not always repeated.

How the values were obtained:
[1] = system: HIV-specific polyfunctional CD8 T cells; experiment: Induced HIV-specific polyfunctional CD8+ T cells in PBMC cultures from HIV-1 infected subjects on cART; format: cell-based, human; settings: for Median HIV-specific polyfunctional CD8 T cells (% proliferating CD8+ cells double positive for IFN-γ and TNF-α): HIV peptide pool, 5 subjects
[2] = system: serum cytokines and chemokines; experiment: Induction of cytokines and chemokines in serum of orally dosed Rhesus macaques (Luminex); format: in vivo
Description: The TLR8 modulator of Example 65 was formulated in 2% ethanol, 40% polyethylene glycol 300, and 58% 0.01 N hydrochloric acid. Oral solutions of formulations were prepared by dissolving a sufficient amount of the compound in the 2% ethanol, 40% polyethylene glycol 300, and 58% 0.01 N hydrochloric acid vehicle to arrive at 0.5, 1.5, or 5 mg/ml of Example 65. Rhesus macaques were dosed orally with 1.2 to 2 mls/kg to achieve dose levels of 1, 3, 6, or 10 mg/kg Example 65. Blood samples were collected at 2, 4, 8, 12, 24 and 48 hours postdose (FIG. 5) and allowed to clot under ambient conditions prior to centrifugation to obtain serum. The indicated cytokines and chemokines were quantified in serum with a multiplexed Luminex® assay following the manufacturer's instructions (Life Technologies). […] At 10 and 6 mg/kg, IL-12, IL-1RA and MCP-1 peaked near 10 ng/ml and IL-6 peaked at 1 ng/ml.

[3] = system: PBMC cultures from HIV-1 infected subjects on cART; experiment: Induced HIV-1 expression in PBMC cultures, HIV-1 RNA in supernatant after 4 days (COBAS TaqMan HIV-1 Test); format: cell-based, human; settings: for N with ≥2-Fold-Activation: subjects; for Fold HIV-1 Activation: vs DMSO; for Geometric Mean with ≥2-Fold-Activation / Range with ≥2-Fold-Activation: N = 5
Description: In some experiments, IL-15, the TLR8 modulating compound of Example 15 or the combination of IL-15 and Example 15 were used at the indicated concentrations (Table 4). The cultures were maintained in the presence of antivirals (elvitegravir and efavirenz at 100 nM each) to prevent viral spread and amplification in order to measure the quantity of virus produced (latency reversal) by the TLR8 modulating compounds. At the end of the incubation period, cell-free culture supernatants were harvested and HIV-1 RNA levels were quantified by the COBAS® AmpliPrep/COBAS®TaqMan HIV-1 Test, v2.0 (Roche).
In each table, fold-activation is calculated as a ratio of HIV-1 RNA copies per ml of cell culture supernatants from TLR8 agonist treated samples and DMSO treated controls. Geometric mean fold-activation from three independent incubation samples for each condition of each subject's PBMCs. Values in bold indicate ≥2-fold HIV activation.
To assess if the latency reversal induced by TLR8 agonism could further potentiate latency reversal by a separate mechanisms, we treated cells as described above with IL-15, Example 15, or a combination of IL-15 and Example 15 (Table 4).

**Q.** Which “Patients in whom increases in HIV-specific polyfunctional CD8 T cells were seen” value ([1]; 100 nM) does the source give for `CCCCC(C)(CO)Nc1nc(N)nc2cc(F)cnc12` (stereo not drawn) [Example 98] here?
**A.** 4 of 5

**Q.** And the “Median HIV-specific polyfunctional CD8 T cells (% proliferating CD8+ cells double positive for IFN-γ and TNF-α)” value ([1]; 100 nM)?
**A.** 0.93%

**Q.** And the “Patients in whom increases in HIV-specific polyfunctional CD8 T cells were seen” value ([1]; 1000 nM)?
**A.** 4 of 5

**Q.** And the “Fold increase of median HIV-specific polyfunctional CD8 T cells” value ([1]; 1000 nM with HIV specific peptide pool vs vehicle, p<0.05)?
**A.** 7.1 fold

**Q.** What about the “Median HIV-specific polyfunctional CD8 T cells (% proliferating CD8+ cells double positive for IFN-γ and TNF-α)” value ([1]; 1000 nM) of the same compound?
**A.** 0.92%

**Q.** Which results are given for `CCCC[C@](C)(CNC(C)=O)Nc1nc(N)nc2cc(Cl)cnc12` [Example 65]?
**A.** Induction of cytokines associated with TLR8 activation (IL-12, IL-6, IL-1RA, MCP-1) in serum ([2]; oral 1, 3, 6, or 10 mg/kg): induced in a dose-dependent manner; IL-1RA peak serum concentration ([2]; oral 10 and 6 mg/kg): ~10 ng/mL; IL-6 peak serum concentration ([2]; oral 10 and 6 mg/kg): 1 ng/mL; IL-12 peak serum concentration ([2]; oral 10 and 6 mg/kg): ~10 ng/mL; MCP-1 peak serum concentration ([2]; oral 10 and 6 mg/kg): ~10 ng/mL; Time of peak serum cytokine concentrations post-dose ([2]; oral dosing): 2 h

**Q.** How did the “Subjects with ≥2-Fold-Activation (%)” value ([3]; IL-15 1 nM) turn out when “IL-15: interleukin-15, used at 1 nM as a separate latency reversal stimulus” was run?
**A.** 66%

**Q.** And the “Fold HIV-1 Activation, Geometric Mean” value ([3]; IL-15 1 nM, N = 6)?
**A.** 2.9 fold

**Q.** What about the “N with ≥2-Fold-Activation” value ([3]; IL-15 1 nM) of the same compound?
**A.** 4 of 6

**Q.** And the “Fold HIV-1 Activation” value ([3]; IL-15 1 nM, one value per subject (IDs 205-210))?
**A.** 1.6 fold and 2.6 fold and 3.3 fold and 4.4 fold and 6.3 fold and 1.4 fold

**Q.** For `CCC[C@@H](CO)Nc1nc(N)nc2cc(F)c(F)cc12` [Example 119, (S)-2-((2-amino-6,7-difluoroquinazolin-4-yl)amino)pentan-1-ol, reference compound], which “Subjects with ≥2-Fold-Activation (%)” value ([3]; 156 nM) is on record?
**A.** (67) %

**Q.** And the “Geometric Mean with ≥2-Fold-Activation” value ([3]; 156 nM)?
**A.** 4.2 fold

**Q.** What about the “Range with ≥2-Fold-Activation” value ([3]; 156 nM) of the same compound?
**A.** 3.6-4.9 fold

**Q.** What about the “N with ≥2-Fold-Activation” value ([3]; 156 nM) of the same compound?
**A.** 2 of 3

**Q.** And the “Fold HIV-1 Activation” value ([3]; 156 nM, one value per subject (IDs 151-155))?
**A.** 3.6 fold and 4.9 fold and 0.4 fold

**Q.** And the “Subjects with ≥2-Fold-Activation (%)” value ([3]; 625 nM)?
**A.** (60) %

**Q.** What about the “Geometric Mean with ≥2-Fold-Activation” value ([3]; 625 nM) of the same compound?
**A.** 4.1 fold

**Q.** And the “Range with ≥2-Fold-Activation” value ([3]; 625 nM)?
**A.** 3.4-4.8 fold

**Q.** What about the “N with ≥2-Fold-Activation” value ([3]; 625 nM) of the same compound?
**A.** 3 of 5

**Q.** What about the “Fold HIV-1 Activation” value ([3]; 625 nM, one value per subject (IDs 151-155)) of the same compound?
**A.** 3.4 fold and 4.1 fold and 4.8 fold and 0.3 fold and 0.5 fold

**Q.** And the “Subjects with ≥2-Fold-Activation (%)” value ([3]; 2,500 nM)?
**A.** (100) %

**Q.** And the “Geometric Mean with ≥2-Fold-Activation” value ([3]; 2,500 nM)?
**A.** 3.6 fold

**Q.** What about the “Range with ≥2-Fold-Activation” value ([3]; 2,500 nM) of the same compound?
**A.** 2.2-5.2 fold

**Q.** What about the “N with ≥2-Fold-Activation” value ([3]; 2,500 nM) of the same compound?
**A.** 5 of 5

**Q.** What about the “Fold HIV-1 Activation” value ([3]; 2,500 nM, one value per subject (IDs 151-155)) of the same compound?
**A.** 4.1 fold and 4.2 fold and 3.2 fold and 5.2 fold and 2.2 fold

**Q.** And the “Geometric Mean with ≥2-Fold-Activation” value ([3]; 156, 625, or 2500 nM)?
**A.** 4.1 fold

**Q.** And the “Range with ≥2-Fold-Activation” value ([3]; 156, 625, or 2500 nM)?
**A.** 2.2-5.2 fold

**Q.** What about the “N with ≥2-Fold-Activation” value ([3]; 156, 625, or 2500 nM) of the same compound?
**A.** 5 out of 5 and 5 of 5
